The record followed here is patent US6509328B1, “Glutamate receptor antagonists” (Hoffmann-La Roche Inc., priority 1999, dated 2003).

Structures are written as SMILES.

Broadly, the melting point is the temperature of the solid-liquid transition. In the case of `CCOC(=O)c1csc(-c2cccc(C3=Nc4ccc(-c5ccccc5F)cc4NC(=O)C3)c2)n1` [Example 154, 2-{3-[7-(2-Fluoro-phenyl)-4-oxo-4,5-dihydro-3H-benzo [b][1,4]diazepin-2-yl]-phenyl}-thiazole-4-carboxylic Acid Ethyl Ester], the melting point lay in the range of 172 to 175 °C.
As for `O=C1CC(c2ccncc2)=Nc2ccc(C#Cc3ccccc3)cc2N1` [Example 12, 8-Phenylethynyl-4-pyridin-4-yl-1,3-dihydro-benzo[b][1,4]diazepin-2-one], the melting point was 198 to 200 °C (dec.).
In the case of `Cc1ccc(C#Cc2ccc3c(c2)NC(=O)CC(c2cccc(C#N)c2)=N3)cc1` [Example 3, 3-(4-Oxo-7-p-tolylethynyl-4,5-dihydro-3H-benzo[b][1,4]diazepin-2-yl)-benzonitrile] it was 236 to 239 °C (dec.); in that of `CC(=O)N1CC=C(c2ccc3c(c2)NC(=O)CC(c2cccc(C#N)c2)=N3)CC1` [Example 47, 3-[7-(1-Acetyl-1,2,3,6-tetrahydro-pyridin-4-yl)-4-oxo-4,5-dihydro-3H-benzo [b][1,4]diazepin-2-yl]-benzonitrile], 220 to 222 °C (dec.); in that of `O=C1CC(c2cccc(-c3nc(C(=O)NCCO)cs3)c2)=Nc2ccc(-c3ccc(F)cc3)cc2N1` [Example 161, 2-{3-[7-(4-Fluoro-phenyl)-4-oxo-4,5-dihydro-3H-benzo [b][1,4]diazepin-2-yl]-phenyl}-thiazole-4-carboxylic Acid (2-hydroxy-ethyl)-amide], 238 to 245 °C (dec.).
For the compound `O=C1CC(c2ccnc(-n3ccnc3)c2)=Nc2ccc(-c3ccc(F)cc3)cc2N1` [Example 69, 8-(4-Fluoro-phenyl)-4-(2-imidazol-1-yl-pyridin-4-yl)-1,3-dihydro-benzo [b][1,4]diazepin-2-one], the melting point was 213 °C (dec.).
In the case of `CC(=O)N1CC=C(C#Cc2ccc3c(c2)NC(=O)CC(c2cccc(C#N)c2)=N3)CC1` [Example 141, 3-[7-(1-Acetyl-1,2,3,6-tetrahydro-pyridin-4-ylethynyl)-4-oxo-4,5-dihydro-3H-benzo[b][1,4]diazepin-2-yl]-benzonitrile], the melting point turned out to be 203 °C.
In the case of `NC(=S)c1cccc(C2=Nc3ccc(-c4ccc(F)cc4)cc3NC(=O)C2)c1` [Example 149, 3-[7-(4-Fluoro-phenyl)-4-oxo-4,5-dihydro-3H-benzo [b][1,4]diazepin-2-yl]-thiobenzamide] it was 267 to 270 °C (dec.); in that of `N#Cc1cccc(C2=Nc3ccc(C#Cc4nccs4)cc3NC(=O)C2)c1` [Example 21, 3-(4-Oxo-7-thiazol-2-ylethynyl-4,5-dihydro-3H-benzo[b][1,4]diazepin-2-yl)-benzonitrile], 230 °C (dec.); in that of `Cc1cn(-c2cccc(C3=Nc4ccc(-c5ccccc5F)cc4NC(=O)C3)c2)c(C)n1` [Example 101, 4-[3-(2,4-Dimethyl-imidazol-1-yl)-phenyl]-8-(2-fluoro-phenyl)-1,3-dihydro-benzo[b][1,4]diazepin-2-one], 92 °C.
As to `N#Cc1ccc(-c2ccc3c(c2)NC(=O)CC(c2cccc(C#N)c2)=N3)cc1` [Example 65, 3-[7-(4-Cyano-phenyl)-4-oxo-4,5-dihydro-3H-benzo [b][1,4]diazepin-2-yl]-benzonitrile], the melting point was 240 °C (dec.).
For `C[Si](C)(C)C#Cc1cccc(C2=Nc3ccc(C#Cc4ccccc4)cc3NC(=O)C2)c1`, the melting point was 169 to 171 °C (dec.).
For the compound `O=C1CC(c2cccc(-c3nc(CO)cs3)c2)=Nc2ccc(-c3ccc(F)cc3)cc2N1` [Example 156, 8-(4-Fluoro-phenyl)-4-[3-(4-hydroxymethyl-thiazol-2-yl)-phenyl]-1,3-dihydro-benzo[b][1,4]diazepin-2-one], the melting point was 235 to 239 °C (dec.).
In the case of `Cc1cn(-c2cccc(C3=Nc4ccc(C#Cc5ccccc5)cc4NC(=O)C3)c2)c(C)n1` [Example 90, 4-[3-(2,4-Dimethyl-imidazol-1-yl)-phenyl]-8-phenylethynyl-1,3-dihydro-benzo[b][1,4]diazepin-2-one] it was 134 °C (dec.).
